Assay results from patent US10105400B2, “Composition of chicken liver hydrolysates and method for improving alcohol metabolism, as well as preventing and treating liver fibrosis” (NATIONAL TAIWAN UNIVERSITY, priority 2016, dated 2018).
Marks after values point to notes of the source that are not given here.

Key:
[1] = Relative sizes of organs and tissues, TAA liver fibrosis model; type: in vivo, Wistar rats
Experimental: (§1) Forty male Wistar rats of 5-week old were purchased from BioLASCO Taiwan Co., Ltd. (Taipei, Taiwan). Two rats were housed in one cage in an animal room at 22±2° C. with a 12/12 h light-dark cycle. After one week of acclimation, the mice were randomly divided into 5 groups:
(§2) (b) The thioacetamide group (The TAA group): intraperitoneal injection of 100 mg TAA/kg-body weight (bw) in 0.3 mL ddH2O and administration of 0.5 mL ddH2O by oral gavage;
(§3) (c) The composition of the chicken liver hydrolysates with low dosage (The CLH-L group): intraperitoneal injection of 100 mg TAA/kg-bw in 0.3 mL ddH2O and administration of 200 mg/kg-bw CLH in 0.5 mL ddH2O by oral gavage;
(§4) (d) The composition of the chicken liver hydrolysates with high dosage (The CLH-H group): intraperitoneal injection of 100 mg TAA/kg-bw in 0.3 mL ddH2O and administration of 600 mg/kg-bw CLH in 0.5 mL ddH2O by oral gavage; and (e) The carnosine group (The CNS group): intraperitoneal injection of 100 mg TAA/kg-bw in 0.3 mL ddH2O and administration of 200 mg/kg-bw carnosine in 0.5 mL ddH2O by oral gavage;
(§5) The experiment lasted for 10 weeks. The rats were injected with ddH2O or TAA intraperitoneally once a week and administered of ddH2O, the composition of the chicken liver hydrolysates or carnosine every day. One kilogram of the chow diet comprises 487 g carbohydrate, 239 g protein, 50 g fat, 51 g fibre and 70 g ash (Laboratory Rodent Diet 5001, PMI Nutrition International/Purina Mills LLC, Richmond, Ind., USA). All rats were fasted overnight before euthanized at the last day of experiment, the organs and the tissues were collected and weighted, and stored at −80° C. for further analysis.
(§6) The experiment was conducted by a complete randomized design. The raw data was expressed as “mean±SEM”. The data was analyzed by analysis of variance (ANOVA) and Fisher's Least Significant Different (LSD) test was used to distinguish significant differences among groups. All statistical analysis of the data was performed by SAS9.2 software (SAS Institute Inc, Cary, N.C., USA). If there is no significant difference between two groups, these groups werelabeled with one identical letter.

collagen = experiment: Collagen deposition in livers (Sirius red stain, collagen kit), TAA model; type: in vivo, Wistar rats
Experimental: as §1, §2
(c) The composition of the chicken liver hydrolysates with low dosage (The CLH-L group): intraperitoneal injection of 100 mg TAA/kg-bw in 0.3 mL ddH2O and administration of 200 mg/kg-bw CLH in 0.5 mL ddH2O by oral gavage; […]
(§7) The experiment was conducted by a complete randomized design. The raw data was expressed as “mean±SEM”. The data was analyzed by analysis of variance (ANOVA) and Fisher's Least Significant Different (LSD) test was used to distinguish significant differences among groups. […]
Sirius red dye can bind to the helical structure of the collagen, and thus the Sirius red stain assay can be used to examine the deposition of collagen in livers. Furthermore, liver collagen levels of the mice are also determined by using commercial kits (Chondres Inc., Redmond, Wash., USA). […] The collagen content in the sample is calculated by using a standard curve plotted by bovine Type I collagen and expressed as μg/mg-protein. […]

[2] = system: thioacetamide (TAA)-treated mice; experiment: Biochemical indexes of liver in sera, TAA liver fibrosis model; type: in vivo, Wistar rats; details: serum; CNS group: 200 mg/kg-bw carnosine oral gavage daily, 10 weeks, TAA 100 mg/kg-bw i.p.
Experimental: as §1, §2, §3, §4, §5, §6

[3] = system: thioacetamide (TAA)-treated; experiment: as above; type: in vivo, Wistar rats; details: serum; CNS group: 200 mg/kg-bw carnosine oral gavage daily, 10 weeks, TAA 100 mg/kg-bw i.p.
Experimental: as §1, §2, §3, §4, §5, §6

[4] = Body weight and feed efficiency, thioacetamide (TAA) liver fibrosis model; type: in vivo, Wistar rats; details: CNS group: 200 mg/kg-bw carnosine oral gavage daily, 10 weeks, TAA 100 mg/kg-bw i.p.
Experimental: as §1
(a) The control group (The CON group): intraperitoneal injection of 0.3 mL normal saline, and administration of 0.5 mL ddH2O by oral gavage;
as §2, §3, §4, §5, §7

lipid peroxidation = experiment: Thiobarbituric acid reactive substance (TBARS) value of sera and livers, alcohol liquid diet mice; type: in vivo, C57/BL/6J (B6) mice; details: SLM group: 150 mg/kg-bw silymarin oral gavage, 8 weeks, ethanol diet
Experimental: (§8) Forty eight male C57/BL/6J (B6) mice of 8-week old were purchased from the Laboratory Animal Center of National Taiwan University. The body weight of these B6 mice were approximately 19 g to 21 g. Two mice were housed in one cage in an animal room at 22±2° C. with a 12/12 hr light-dark cycle. After one week of acclimation, the mice were randomly divided into 6 groups: […]
(§9) (f) The silymarin group (The SLM group): administered with the Lieber-DeCarli regular ethanol diet and 150 mg/kg-bw of silymarin in 0.2 mL ddH2O by oral gavage.
(§10) The animal experiment lasted for 8 weeks; the body weight of each mouse was recorded at the beginning and the end of the experiment. The daily liquid feed (mL) intakes as a food intake of each mouse was calculated. […]
(§11) The experiment was conducted by a complete randomized design. […] The data was analyzed by one way-analysis of variance (ANOVA) and Fisher's Least Significant Different test to distinguish significant differences among groups. […]
(§12) To evaluate the antioxidative ability of the composition of the chicken liver hydrolysates, the ABTS^+ free radical clearing ability is tested and represented as trolox equivalent antioxidant capacity (TEAC). The lipid peroxidation is also determined by thiobarbituric acid reactive substance (TBARS) value.

ABTS+ free radical = experiment: Trolox equivalent antioxidant capacity (TEAC) of sera and livers, alcohol liquid diet mice; type: in vivo, C57/BL/6J (B6) mice; details: SLM group: 150 mg/kg-bw silymarin oral gavage, 8 weeks, ethanol diet
Experimental: as §8, §9, §10, §11, §12

[5] = Body weight, food intake and relative sizes of organs and tissues of mice fed alcohol liquid diet; type: in vivo, C57/BL/6J (B6) mice; details: SLM group: 150 mg/kg-bw silymarin oral gavage, 8 weeks, ethanol diet
Experimental: Forty eight male C57/BL/6J (B6) mice of 8-week old were purchased from the Laboratory Animal Center of National Taiwan University. The body weight of these B6 mice were approximately 19 g to 21 g. Two mice were housed in one cage in an animal room at 22±2° C. with a 12/12 hr light-dark cycle. After one week of acclimation, the mice were randomly divided into 6 groups:
(a) The control group (the CON group): administered with the control liquid diet and 0.2 mL ddH2O by oral gavage.
(b) The ethanol group (the EtOH group): administered with the Lieber-DeCarli regular ethanol diet and 0.2 mL ddH2O by oral gavage.
(c) The composition of the chicken liver hydrolysates with low dosage (The CLH-L group): administered with the Lieber-DeCarli regular ethanol diet and 80 mg/kg-body weight (bw) of the composition of the chicken liver hydrolysates in 0.2 mL ddH2O by oral gavage.
(d) The composition of the chicken liver hydrolysates with medium dossage (The CLH-M group): administered with the Lieber-DeCarli regular ethanol diet and 320 mg/kg-bw of the composition of the chicken liver hydrolysates CLH in 0.2 mL ddH2O by oral gavage.
(e) The composition of the chicken liver hydrolysates with high dosage (The CLH-H group): administered with the Lieber-DeCarli regular ethanol diet and 1280 mg/kg-bw of the composition of the chicken liver hydrolysates in 0.2 mL ddH2O by oral gavage.
as §9
The animal experiment lasted for 8 weeks; the body weight of each mouse was recorded at the beginning and the end of the experiment. The daily liquid feed (mL) intakes as a food intake of each mouse was calculated. Mice were sacrificed after 8 weeks and the blood, heart, kidney, epididymal fat tissue, and perirenal fat tissue were all collected, weighted and then stored at −80° C. for further analysis.
The experiment was conducted by a complete randomized design. The raw data was presented as “mean±standard error of the mean (SEM)”. The data was analyzed by one way-analysis of variance (ANOVA) and Fisher's Least Significant Different test to distinguish significant differences among groups. All statistical analysis of data was performed by SAS9.2 software (SAS Institute Inc, Cary, N.C., USA). If there is no significant difference between two groups, these groups were labeled with one identical letter.

[6] = CNS group: 200 mg/kg-bw carnosine oral gavage daily, 10 weeks, TAA 100 mg/kg-bw i.p.

## NCCC(=O)N[C@@H](Cc1cnc[nH]1)C(=O)O [CNS, carnosine]
[1]; [6]
  Relative size Heart: 0.31 ± 0.01^a g/100 g-bw
  Relative size Kidney: 0.74 ± 0.01^a g/100 g-bw
  Relative size Liver: 4.14 ± 0.09^a g/100 g-bw
  Relative size Perirenal fat: 1.47 ± 0.11^a g/100 g-bw
  Relative size Spleen: 0.31 ± 0.02^a g/100 g-bw
[1]; carnosine 200 mg/kg-bw vs TAA group, p>0.05
  relative sizes of liver, kidney and spleen: does not decrease
collagen; CNS group (carnosine 200 mg/kg-bw) compared to TAA group, FIG. 7(B)
  liver collagen content: significantly decreased
collagen; CNS group (carnosine 200 mg/kg-bw) vs TAA group, FIG. 7(A)
  collagen deposition in livers (Sirius red stain): remarkably decreased
[2]
  AST: 211.00 ± 24.57^b U/L
  Blood urea nitrogen: 15.4 ± 0.89 mg/dL
  Total cholesterol: 52.38 ± 3.53^a mg/dL
  Total protein: 4.26 ± 0.24^b g/dL
  Triglyceride: 33.25 ± 3.19^b mg/dL
[3]
  ALT: 63.88 ± 5.86^b U/L
[4]
  Feed efficiency: 8.89 ± 0.33^b %
  Final body weight: 380.61 ± 10.47^b g
  Weight increase: 163.99 ± 7.63^a g

## COc1cc(C2Oc3cc([C@H]4Oc5cc(O)cc(O)c5C(=O)[C@@H]4O)ccc3OC2CO)ccc1O (stereo partly drawn) [SLM, silymarin]
Lipid peroxidation
  TBARS Liver: 0.64 ± 0.12^ab nmole MDA eq./mg-protein
  TBARS Serum: 52.62 ± 2.26^bc nmole MDA eq./mL
ABTS+ free radical
  TEAC Liver: 294.16 ± 14.82^a nmole/mg-protein
  TEAC Serum: 4.48 ± 0.18^b nmole/mL
[5]
  Relative size Epididymal fat tissue: 1.68 ± 0.15^bc g/100 g-bw
  Relative size Heart: 0.45 ± 0.01^ab g/100 g-bw
  Relative size Kidney: 1.19 ± 0.04^ab g/100 g-bw
  Relative size Liver: 4.45 ± 0.06^a g/100 g-bw
  Relative size Perirenal fat tissue: 0.37 ± 0.04^b g/100 g-bw
  Relative size Spleen: 0.18 ± 0.01^b g/100 g-bw
